Measured values: patent publication US5169850A, “N-(dialkylamino)methylene)-substituted pyrazolo(1,5-a)-pyrimidine-3-carboxamides and N-(dialkylamino)methylene-substituted-4,5-dihydropyrazolo-(1,5-a)-pyrimi dine-3-carboxamides” (American Cyanamid Company, priority 1991, dated 1992)
Where “and” joins values, the source holds several entries; their conditions need not be identical. Equal values may be shown once.

Experiments:
[1] = Passive-Avoidance Anoxic-Induced-Amnesia Test; type: in vivo, Swiss-Webster mice; conditions: vs saline control, active if 30 percent
Text: Another in vivo test associated with decreased neural function in mammals is the Passive-Avoidance Anoxic-Induced-Amnesia Test. This test is used to determine the attenuation of anoxic induced amnesia in mice treated with drug, as compared to saline treated control animals with no drug.
A shock-motivated, single trial, step-through passive avoidance procedure is used. Groups of 25 Swiss-Webster, middle aged mice (9 months of age) are placed singly in the front chamber of a 2-chamber box and are allowed to voluntarily cross into the rear chamber. As soon as the mouse enters the rear chamber, a door automatically traps the animal and a mild electric shock (0.4 mA for 4 seconds) is delivered to its feet. Following the foot shock, the mice are initially placed in an anoxic environment (0 percent oxygen) for 12 seconds, which quickly induces unconsciousness. They are then placed in a hypoxic environment (15 percent oxygen) for four minutes which prolongs the oxygen deprived state, maintaining unconsciousness. All testing is performed 24 hours later, and in all cases the mice appear fully recovered from the previous anoxic/hypoxic treatment. All test compounds are administered intraperitoneally at a dose of 5-200 mg/kg, 30 minutes prior to training and testing. Control animals are injected intraperitoneally only with saline at 0.01 cc/g of body weight.
The latency to enter the rear chamber is recorded for both training and testing. Presumably, the more the animal remembers being shocked, the greater it will inhibit going into the rear chamber and the higher will be its latency to re-enter. An improvement of 30 percent over saline control scores is considered active.

[2] = Mean arterial blood pressure in spontaneously hypertensive rats; type: in vivo, spontaneously hypertensive rats of the Okamoto strain; conditions: gavage, 100 mg/kg or less, two doses 24 h apart, measured at 28 h; average MABP of rats 160±1.5
Experimental: Certain of the novel compounds of the present invention are active hypotensive agents at non-toxic doses when administered to mammals. These compounds were tested for hypotensive activity by the method of P. S. Chan and D. W. Poorvin, Clinical and Experimental Hypertension, 1 (6), […] (1979). Male, 16 week old spontaneously hypertensive rats of the Okamoto strain having an average mean arterial blood pressure of 160±1.5 mm of mercury are used in the test. One to three rats are used per test compound. A rat is dosed by gavage with a test compound, suspended in 2 percent pre-boiled starch at a concentration of50 mg/ml, at a dose of 100 mg/kg of body weight or less, with 0.9 percent sodium chloride loading at a dose of 25 ml/kg of body weight. A second identical dose of the test compound, without sodium chloride loading is given 24 hours later. At 28 hours after the initial dose the mean arterial blood pressure is measured by the method of Chan and Poorvin vide supra. The procedure is repeated in a second and third rat when necessary.

[3] = system: Brain-Specific Receptors of Rats (3H-benzodiazepine binding); assay: Inhibition of the binding of 3H-benzodiazepine to brain-specific receptors of rats; set-up: species or system rat (male albino, Wistar strain); conditions: 3H-diazepam or 3H-flunitrazepam, rat cortex P2 fraction, pH 7.4, 30 min in ice; test concentration not given
Text: Still another test utilized for the determination of anxiolytic activity is the measurement of the ability of a test compound to inhibit the binding of tritiated benzodiazepines to brain-specific receptors of mammals. A modification of the method described by R. F. Squires, et al, Nature, 266, No. 21:732 (April, 1977) and H. Mosler, et al, Science, 198:849 (1977) was employed.
Male albino rats (Wistar strain, weighing 150-200 g each) were used. The test compounds were solubilized in N,N-dimethylformamide, acetic acid, ethanol or hydrochloric acid.
Whole cortex of rats was homogenized gently in 20 volumes of ice-cold 0.32 M sucrose, centrifuged twice at 1000 g for 10 minutes and then recentrifuged at 30,000 g for 20 minutes to produce a crude P2 -synaptosomal fraction. The P2 -fraction was either: (1) resuspended in twice the original volume in hypotonic 50 mM Tris.HCl(pH 7.4), or (2) resuspended in one-half of the original volume in hypotonic 10 mM Tris.HCL (pH 7.4) and frozen (-20° C.) until time of use. Frozen P2 preparations were thawed and resuspended in four times the original homogenizing volume at time of assay.
The binding assay consisted of 300 l of the P2 -fraction suspension (0.2-0.4 mg protein), 100 l of test drug and 100 l of 3H-diazepam 91.5 nM, final concentration) or 3H-flunitrazepam (1.0 nM, final concentration )which was added to 1.5 l of 50 mM Tris.HCl (pH 7.4). Non-specific binding controls and total binding controls received […] of diazepam ([…] final concentration) and 100 l of deionized water, respectively, in place of the test compound. Incubation for 30 minutes proceeded in ice and was terminated by filtration, under vacuum, through glass fiber filters. The filters were washed twice with 5 ml of ice-cold 50 mM Tris.HCl (pH 7.4) and placed in scintillation vials. After drying at 50°-60° C. for 30 minutes, 10 ml of diluent was added and the radioactivity determined in a scintillation counter.
Inhibition of binding was calculated by the difference between total binding and binding in the presence of test compound, divided by the total, times 100. Physiological activity can be shown by a test compound that inhibits 3H-benzodiazepine binding by 12 percent or more.

[4] = Protection against clonic seizures caused by pentylenetetrazole; type: in vivo, rats; conditions: orally or intraperitoneally, pentylenetetrazole 23 mg/kg i.v. at 30 or 60 min
Experimental: The anti-anxiety properties of the novel compounds of the present invention have been established in a test which indicates anxiolytic activity by the measure of protection from convulsions resulting from the administration of pentylenetetrazole. Single or graded dose levels of the test compounds were administered orally or intraperitoneally in a 2 percent starch vehicle containing 0.5 percent v/v polyethylene glycol and one drop of Polysorbate 80, or distilled water and one drop of Polysorbate 80 to groups of at least four rats. At 30 or 60 minutes, the rats were treated intravenously with pentylenetetrazole at a dose of 23 mg/kg of body weight. This dose is estimated to cause clonic seizures in 99 percent of unprotected rats. The test compounds are considered active if they protect 50 percent or more of the rats from clonic seizures.
It has been reported (R. T. Hill and D. H. Tedeschi, "Animal Testing and Screening Procedures in Evaluating Psychotropic Drugs" in "An Introduction to Psychopharmacology", pp 237-288 (Eds. R. R. Rech and K. E. Moore, Raven Press, New York, 1971)) that there is a high degree of correlation between antagonism of pentylenetetrazole seizures in rats and anti-anxiety effects in higher warm-blooded animals.

Hypoxic Survival Test = type: in vivo, Royal Hart mice; conditions: for % Survivors: 30 min before hypoxia, survival after 5 min
Experimental: A useful in vivo test that measures how effectively central nervous system-acting drugs enhance survival in an hypoxic environment, presumably by improving the ratio of energy supply to demand is known as the Hypoxic Survival Test. […] Drugs are tested by intraperitoneally injecting groups of mice 30 minutes prior to placing them in hypoxic mixture and measuring survival. The rationale of this test is that drugs which enhance survival under hypoxic conditions without concomitant, depression or sedative side effects, may do so by enhancing energy metabolism, or by preserving normal brain function under conditions of reduced energy metabolism. Given the dependence of the brain on a constant supply of energy, drugs which have this property may have many far-reaching therapeutic indications, including recovery from stroke and closed head injury, as well as reducing the deleterious effects of the aging central nervous system. […]
A separate group of 20 mice is injected intraperitoneally with saline solution (0.01 cc/g of body weight) and processed as described above.
Still another group of 20 mice is injected intraperitoneally with 0.125 mg/kg of physostigmine and processed as described above.

[5] = Conflict procedure (non-conditioned passive avoidance); type: in vivo, Wistar strain rats; conditions: 25 mg/kg oral, 60 min before test
Experimental: Another test used to assess anti-anxiety effects is a non-conditioned passive avoidance procedure described by J. R. Vogel, G. Beer and D. E. Clody, "A Simple and Reliable Conflict Procedure for Testing Antianxiety Agents", Psychopharmacologia, 21, 1-7 (1971). A conflict situation was induced in rats by a modification of this method.
Groups of 8 naive, Wistar strain rats, weighing 200-240 g each, were deprived of water for 48 hours. The test compounds were administered in single or graded, oral doses, suspended in 2 percent starch with […] polyethylene glycol in distilled water and one drop of Polysorbate 80. Control animals received the vehicle alone. At 60 minutes each rat was placed in an individual clear plastic chamber. Tap water was available ad libitum from a nipple located in a black box off the main chamber. A 0.7 milliampere AC shocking current was established between the stainless steel grid floor and the tap. After 20 licks of non-shocked drinking, a 2 second shocking current was administered to the rat. This ratio of 20 licks of non-shocked drinking followed by a 2 second shock was continued for a total of 3 minutes. The number of shocks taken by each rat during the 3 minute interval was recorded and compared to a control group. […]

Compound: CC(=NC(=O)c1cnn2c(-c3cccnc3)ccnc12)N(C)C [N-((Dimethylamino)ethylidene)-7-(3-pyridinyl)pyrazolo(1,5-a)pyrimidine 3-carboxamide]
- % Improvement ([1]; 25 mg/kg i.p.): 53%
- % Improvement ([1]; 50 mg/kg i.p.): 46%

Compound: CN(C)C=NC(=O)c1cnn2c1NCC=C2c1cccnc1 [N-((Dimethylamino)methylene)4,5-dihydro-7-(3-pyridinyl)pyrazolo(1,5-a)pyrimidine-3-carboxamide]
- % Improvement ([1]; 50 mg/kg i.p.): 66%
- % Improvement ([1]; 100 mg/kg i.p.): 54%
- MABP/mmHg (no. of rat) [2]: 113 mmHg
- % Inhibition [3]: 32%

Compound: Cc1cccc(-c2ccnc3c(C(=O)N=CN(C)C)cnn23)c1 [N-((Dimethylamino)methylene) 7-(3-methylphenyl)pyrazolo(1,5-a)pyrimidine-3-carboxamide]
- % Inhibition [3]: 65%
- % of Rats Protected ([4]; 50 mg/kg): 50%

Compound: Cc1cc(-c2ccccc2)n2nc(C)c(C(=O)N=CN(C)C)c2n1 [N-((Dimethylamino)methylene)-2,5-dimethyl-7-phenylpyrazolo(1,5-a)pyrimidine-3-carboxamide]
- % Survivors (Hypoxic Survival Test; 100 mg/kg i.p.): 42%

Compound: Cc1nn2c(-c3ccncc3)ccnc2c1C(=O)N=CN(C)C [N-((Dimethylamino)methylene)-2-methyl-7-(4-pyridinyl)pyrazolo(1,5-a)pyrimidine-3-carboxamide]
- MABP/mmHg (no. of rat) [2]: 130 mmHg
- % Survivors (Hypoxic Survival Test; 10 mg/kg i.p.): 55%

Compound: Cc1nn2c(-c3ccccc3)ccnc2c1C(=O)N=CN(C)C [N-((Dimethylamino)methylene)-2-methyl-7-phenylpyrazolo(1,5-a)pyrimidine-3-carboxamide]
- % Improvement ([1]; 5 mg/kg i.p.): 49%
- % Improvement ([1]; 10 mg/kg i.p.): 37%
- % Improvement ([1]; 25 mg/kg i.p.): 66%
- % Improvement ([1]; 50 mg/kg i.p.): 66%
- % Inhibition [3]: 18%
- % Survivors (Hypoxic Survival Test; 0.1 mg/kg i.p.): 45%
- % Survivors (Hypoxic Survival Test; 10 mg/kg i.p.): 100%
- % Survivors (Hypoxic Survival Test; 100 mg/kg i.p.): 97%
- % Survivors (Hypoxic Survival Test; 200 mg/kg i.p.): 95%

Compound: CN(C)C=NC(=O)c1cnn2c1NCC=C2c1cccc(C(F)(F)F)c1 [N-((Dimethylamino)methylene)-4,5-dihydro-7-(3-(trifluoromethyl)phenylpyrazolo(1,5-a)-pyrimidine-3-carboxamide]
- % Improvement ([1]; 25 mg/kg i.p.): 49%
- % Improvement ([1]; 50 mg/kg i.p.): 57%
- MABP/mmHg (no. of rat) [2]: 131 mmHg
- Result (no. of shocks per 3 min.) [5]: 22.9 no. of shocks per 3 min.
- % Inhibition [3]: 17%
- % Survivors (Hypoxic Survival Test; 50 mg/kg i.p.): 75%
- % Survivors (Hypoxic Survival Test; 100 mg/kg i.p.): 57%
- % of Rats Protected ([4]; 12.5 mg/kg): 88%
- % of Rats Protected ([4]; 25 mg/kg): 75% and 88%

Compound: Cc1cnc2c(C(=O)N=CN(C)C)cnn2c1 [N-((Dimethylamino)methylene)-6-methyl-pyrazolo(1,5-a)pyrimidine-3-carboxamide]
- % Survivors (Hypoxic Survival Test; 10 mg/kg i.p.): 42%
- % Survivors (Hypoxic Survival Test; 50 mg/kg i.p.): 40%
- % Survivors (Hypoxic Survival Test; 100 mg/kg i.p.): 62%
- % Survivors (Hypoxic Survival Test; 200 mg/kg i.p.): 45%

Compound: CN(C)C=NC(=O)c1cnn2c(-c3cccnc3)ccnc12 [N-((Dimethylamino)methylene)-7-(3-pyridinyl)-pyrazolo(1,5-a)pyrimidine-3-carboxamide]
- % Improvement ([1]; 25 mg/kg i.p.): 33%
- % Improvement ([1]; 50 mg/kg i.p.): 33%
- % Survivors (Hypoxic Survival Test; 25 mg/kg i.p.): 80% and 58% and 42%

Compound: CN(C)C=NC(=O)c1cnn2c(-c3cccc(C(F)(F)F)c3)ccnc12 [N-((Dimethylamino)methylene)-7-(3-trifluoromethyl)phenyl)pyrazolo(1,5-a)pyrimidine-3-carboxamide]
- % Inhibition [3]: 82%

Compound: CN(C)C=NC(=O)c1cnn2c(-c3ccccc3)ccnc12 [N-((Dimethylamino)methylene)-7-phenylpyrazolo(1,5-a)-pyrimidine-3-carboxamide]
- % Inhibition [3]: 28%

Compound: CNC(=O)Oc1ccc2c(c1)[C@]1(C)CCN(C)[C@@H]1N2C [physostigmine, reference compound]
- percent of physostigmine treated mice that survive (Hypoxic Survival Test; 10 percent oxygen, after 5 minutes, control mice 5-20 percent, dose 0.125 mg/kg i.p.): 60-80%
